In BindingDB's records for doi:10.7270/Q2PR7TDC (Burnham Center For Chemical Genomics, 2010):

Assay: TNFa-triggered NF-kB activation inhibitors, SAR follow-up, cell-based, revised (AID 2337)

SMILES	IC50
CCOC1=CC=CC(C=NNC(=S)Nc2ccccc2[N+](=O)[O-])C1=O (stereo not drawn) [MLS-0270696.0001]	0.414 µM
Cc1cc(SCC(=O)OCC(=O)C(C#N)c2nc3ccccc3[nH]2)c(C)cc1Br (stereo not drawn)	> 20 µM
Cc1ccc(O)c(/N=C/C2=CC(Cc3ccccc3)C=C([N+](=O)[O-])C2=O)c1 (stereo not drawn) [(6E)-6-[[(5-methyl-2-oxidanyl-phenyl)amino]methylidene]-2-nitro-4-(phenylmethyl)cyclohexa-2,4-dien-1-one]	> 20 µM
N#CC(C(=O)COC(=O)CSc1ccc2ccccc2c1)c1nc2ccccc2[nH]1 (stereo not drawn) [[3-cyano-3-(1,3-dihydrobenzimidazol-2-ylidene)-2-oxopropyl] 2-naphthalen-2-ylsulfanylacetate]	> 20 µM
N#CC(C(=O)COC(=O)CSc1ccc(Cl)cc1)c1nc2ccccc2[nH]1 (stereo not drawn) [MLS-0208254.0001]	> 20 µM
CCCOC1=CC(=O)C(C=NNC(=S)Nc2ccccc2[N+](=O)[O-])C=C1 (stereo not drawn) [1-(2-nitrophenyl)-3-[[(E)-(6-oxo-4-propoxy-1-cyclohexa-2,4-dienylidene)methyl]amino]thiourea]	0.88 µM
Cc1ccc(C)c(SCC(=O)OCC(=O)C(C#N)c2nc3ccccc3[nH]2)c1 (stereo not drawn) [MLS000392255]	> 20 µM
Cc1cc(Br)ccc1SCC(=O)OCC(=O)C(C#N)c1nc2ccccc2[nH]1 (stereo not drawn) [2-[(4-bromo-2-methylphenyl)thio]acetic acid [3-cyano-3-(1,3-dihydrobenzimidazol-2-ylidene)-2-oxopropyl] ester]	> 20 µM
